# Laboratory results from patent US9744150B2, “Suspension containing micronized benzoyl peroxide” (Dow Pharmaceutical Sciences Inc., priority 2009, dated 2017).
# Assay: surface tension by Du Noüy ring method, Krüss K20 EasyDyne tensiometer
# Assay type: physicochemical
# Details: for Surface tension: room temperature
# Experimental: As used herein, the term “surface tension” refers to the force required to increase the unit area of a surface of a liquid or of an interface between two liquids or between a liquid and a gas, generally stated in units of dynes/cm. Surface tensions described herein are measured by the Du Noüy ring method utilizing an EasyDyne tensiometer model K20 marketed by Krüss USA, Matthews, N.C.
# Surface tension of a fluid containing water was determined prior to and after mixing with various concentrations of various water soluble organic solvents in water. […] The study was performed at room temperature utilizing a Kruss Surface Tensiometer, Model K20 EasyDyne (Kruss USA, Matthews, N.C.) and the results are shown in Table 4. Values for surface tension are in dynes/cm.
Compound,Surface tension (1.0 % w/w solvent in water),Surface tension (2.5 % w/w solvent in water),Surface tension (5 % w/w solvent in water),Surface tension (7.5 % w/w solvent in water),Surface tension (10 % w/w solvent in water),Surface tension (12.5 % w/w solvent in water),Surface tension (15.0 % w/w solvent in water),Surface tension (17.5 % w/w solvent in water),Surface tension (20 % w/w solvent in water),Surface tension (22.5 % w/w solvent in water),Surface tension (25 % w/w solvent in water),Surface tension (100 % w/w solvent),Surface tension (50 % w/w solvent in water),Surface tension (75 % w/w solvent in water),"suitability for the present method (by itself, at concentrations of 75% or less)",Surface tension (30 % w/w solvent in water),"concentration suitable for the invention (surface tension less than 64 dynes/cm) (solvent in water, from the data of Table 4)"
"CC1COC(=O)O1 (stereo not shown) [Propylene Carbonate, propylene carbonate]",68.5 dynes/cm,63.8 dynes/cm,56.8 dynes/cm,49.6 dynes/cm,45.9 dynes/cm,46.5 dynes/cm,44.1 dynes/cm,43.5 dynes/cm,,,,,,,,,
"OCC(O)CO [Glycerin USP, glycerin]",,,,,,,,,,,69.8 dynes/cm,62.0 dynes/cm,68.9 dynes/cm,66.4 dynes/cm,not suitable,,
"CO[C@H]1CO[C@H]2[C@@H]1OC[C@H]2OC [Dimethyl Isosorbide, dimethyl isosorbide]",66.0 dynes/cm,61.7 dynes/cm,52.8 dynes/cm,52.1 dynes/cm,47.9 dynes/cm,46.4 dynes/cm,43.5 dynes/cm,41.9 dynes/cm,38.6 dynes/cm,40.5 dynes/cm,41.7 dynes/cm,39.3 dynes/cm,,,,,
"CC(C)O [Isopropyl Alcohol, isopropyl alcohol]",62.1 dynes/cm,,47.3 dynes/cm,42.0 dynes/cm,38.6 dynes/cm,35.7 dynes/cm,33.1 dynes/cm,31.1 dynes/cm,29.5 dynes/cm,28.1 dynes/cm,27.3 dynes/cm,21.1 dynes/cm,,,,,
"OCCCO [1,3-Propanediol, 1,3-propanediol]",69.8 dynes/cm,68.1 dynes/cm,64.6 dynes/cm,64.4 dynes/cm,61.2 dynes/cm,61.1 dynes/cm,61.0 dynes/cm,58.9 dynes/cm,60.4 dynes/cm,58.2 dynes/cm,58.3 dynes/cm,,,,,,
"CCOCCOCCO [Ethoxy Diglycol NF, ethoxydiglycol]",66.2 dynes/cm,62.5 dynes/cm,56.8 dynes/cm,55.3 dynes/cm,53.1 dynes/cm,50.4 dynes/cm,49.7 dynes/cm,47.6 dynes/cm,43.2 dynes/cm,43.1 dynes/cm,43.8 dynes/cm,32.0 dynes/cm,,,,,

# More lines, now with the values ahead:
Surface tension (1.0 % w/w solvent in water),Surface tension (2.5 % w/w solvent in water),Surface tension (5 % w/w solvent in water),Surface tension (7.5 % w/w solvent in water),Surface tension (10 % w/w solvent in water),Surface tension (12.5 % w/w solvent in water),Surface tension (15.0 % w/w solvent in water),Surface tension (17.5 % w/w solvent in water),Surface tension (20 % w/w solvent in water),Surface tension (22.5 % w/w solvent in water),Surface tension (25 % w/w solvent in water),Surface tension (100 % w/w solvent),Surface tension (50 % w/w solvent in water),Surface tension (75 % w/w solvent in water),"suitability for the present method (by itself, at concentrations of 75% or less)",Surface tension (30 % w/w solvent in water),"concentration suitable for the invention (surface tension less than 64 dynes/cm) (solvent in water, from the data of Table 4)",Compound
67.4 dynes/cm,62.0 dynes/cm,55.9 dynes/cm,51.4 dynes/cm,47.8 dynes/cm,44.6 dynes/cm,42.2 dynes/cm,40.2 dynes/cm,38.0 dynes/cm,36.6 dynes/cm,34.9 dynes/cm,22.3 dynes/cm,,,,,,"CCO [Ethanol (200 proof), ethanol]"
70.8 dynes/cm,68.7 dynes/cm,65.9 dynes/cm,63.6 dynes/cm,61.7 dynes/cm,59.7 dynes/cm,58.3 dynes/cm,56.5 dynes/cm,55.2 dynes/cm,54.1 dynes/cm,52.8 dynes/cm,36.1 dynes/cm,,,,50.6 dynes/cm,≥ 7.5%,"CC(O)CO (stereo not shown) [Propylene Glycol USP, propylene glycol]"
